Experimental data taken from BindingDB's records for doi:10.1021/jm00006a008 (Glaxo Research Institute, 1995).

Assay: Inhibitory concentration against topoisomerase I obtained from calf thymus

In the case of CCOC(=O)c1c2c(nc3cc4c(cc13)OCCO4)-c1cc3c(c(=O)n1C2)COC(=O)C3(O)CC (stereo unspecified) [ethyl 8-ethyl-8-hydroxy-9,12-dioxo-2,3,8,9,12,14-hexahydro-11H-[1,4]dioxino[2,3-g]pyrano[3',4':6,7]indolizino[1,2-b]quinoline-15-carboxylate], the IC50 is reported as 700 nM.
